Data: PMC8398766, “Do Small Molecules Activate the TrkB Receptor in the Same Manner as BDNF? Limitations of Published TrkB Low Molecular Agonists and Screening for Novel TrkB Orthosteric Agonists” (Pharmaceuticals, 2021)
Values joined by “and” are separate entries in the source; they are usually repeats but may differ in a detail not shown here. Equal entries are not always repeated.

Assays:
Assay in all cases: BioPrint Profile Panel
Type in all cases: binding
[1] = target: T1, norepinephrine transporter (Homo sapiens, UniProt P23975); conditions: Antagonist, read-out: % of specific inhibition
T1 construct: purchased Eurofins Discovery (Cerep) BioPrint Profile Panel
Description: (§1) The BioPrint® Profile Panel service offered by Eurofins Discovery (Poitiers, France) was chosen to perform selectivity analysis.

dopamine transporter = target: T2, dopamine transporter (Homo sapiens, UniProt Q01959); conditions: Antagonist, read-out: % of specific inhibition
T2 construct: purchased Eurofins Discovery (Cerep) BioPrint Profile Panel
Description: as §1

AMPA = conditions: 10 μM; Agonist; Ion Channel
Description: as §1

ETB = target: T3, ETB (Homo sapiens, UniProt P24530); conditions: Agonist, Receptor, read-out: % of specific inhibition
T3 construct: purchased Eurofins Discovery (Cerep) BioPrint Profile Panel
Description: as §1

D2S = target: T4, D2S (Homo sapiens, UniProt P14416); conditions: Agonist, Receptor, read-out: % of specific inhibition
T4 construct: purchased Eurofins Discovery (Cerep) BioPrint Profile Panel
Description: as §1

[2] = system: Ca2+ channel (diltiazem site); conditions: 10 μM; Antagonist (diltiazem site); Ion Channel
Description: as §1

sst4 = target: T5, sst4 (Homo sapiens, UniProt P31391); conditions: Agonist, Receptor, read-out: % of specific inhibition
T5 construct: purchased Eurofins Discovery (Cerep) BioPrint Profile Panel
Description: as §1

BB3 = target: T6, BB3 (Homo sapiens, UniProt P32247); conditions: Agonist, Receptor, read-out: % of specific inhibition
T6 construct: purchased Eurofins Discovery (Cerep) BioPrint Profile Panel
Description: as §1

MAO-A = target: T7, MAO-A (Rattus norvegicus, UniProt P21396); conditions: Antagonist, Non-Kinase Enzyme, read-out: % of specific inhibition
T7 construct: purchased Eurofins Discovery (Cerep) BioPrint Profile Panel
Description: as §1

BZD = conditions: 10 μM, Agonist, Ion Channel
Description: as §1

MC1 = target: T8, MC1 (Mus musculus, UniProt Q01727); conditions: Agonist, Receptor, read-out: % of specific inhibition
T8 construct: purchased Eurofins Discovery (Cerep) BioPrint Profile Panel
Description: as §1

5-HT1B = target: T9, 5-HT1B (Rattus norvegicus, UniProt P28564); conditions: Antagonist, Receptor, read-out: % of specific inhibition
T9 construct: purchased Eurofins Discovery (Cerep) BioPrint Profile Panel
Description: as §1

5-HT6 = target: T10, 5-HT6 (Homo sapiens, UniProt P50406); conditions: Agonist, Receptor, read-out: % of specific inhibition
T10 construct: purchased Eurofins Discovery (Cerep) BioPrint Profile Panel
Description: as §1

AR = target: T11, AR (Homo sapiens, UniProt P10275, T878A); conditions: Agonist, Receptor, read-out: % of specific inhibition
T11 construct: purchased Eurofins Discovery (Cerep) BioPrint Profile Panel
Description: as §1

kappa = conditions: 10 μM; Agonist; Receptor
Description: as §1

MT1 (ML1A) = target: T12, MT1 (ML1A) (Homo sapiens, UniProt P48039); conditions: Agonist, Receptor, read-out: % of specific inhibition
T12 construct: purchased Eurofins Discovery (Cerep) BioPrint Profile Panel
Description: as §1

ẟ(DOP) = target: T13, ẟ(DOP) (Homo sapiens, UniProt P41143); conditions: Agonist, Receptor, read-out: % of specific inhibition
T13 construct: purchased Eurofins Discovery (Cerep) BioPrint Profile Panel
Description: as §1

kainate = conditions: 10 μM; Agonist; Ion Channel
Description: as §1

EP2 = target: T14, EP2 (Homo sapiens, UniProt P43116); conditions: Agonist, Receptor, read-out: % of specific inhibition
T14 construct: purchased Eurofins Discovery (Cerep) BioPrint Profile Panel
Description: as §1

choline transporter = target: T15, choline transporter (Homo sapiens, UniProt Q9GZV3); conditions: Antagonist, read-out: % of specific inhibition
T15 construct: purchased Eurofins Discovery (Cerep) BioPrint Profile Panel
Description: as §1

motilin = target: T16, motilin (Homo sapiens, UniProt O43193); conditions: Agonist, Receptor, read-out: % of specific inhibition
T16 construct: purchased Eurofins Discovery (Cerep) BioPrint Profile Panel
Description: as §1

H4 = target: T17, H4 (Homo sapiens, UniProt Q9H3N8); conditions: Agonist, Receptor, read-out: % of specific inhibition
T17 construct: purchased Eurofins Discovery (Cerep) BioPrint Profile Panel
Description: as §1

H1 = target: T18, H1 (Homo sapiens, UniProt P35367); conditions: Antagonist, Receptor, read-out: % of specific inhibition
T18 construct: purchased Eurofins Discovery (Cerep) BioPrint Profile Panel
Description: as §1

PPARγ = target: T19, PPARγ (Homo sapiens, UniProt P37231); conditions: Agonist, Receptor, read-out: % of specific inhibition
T19 construct: purchased Eurofins Discovery (Cerep) BioPrint Profile Panel
Description: as §1

CB2 = target: T20, CB2 (Homo sapiens, UniProt P34972); conditions: Agonist, Receptor, read-out: % of specific inhibition
T20 construct: purchased Eurofins Discovery (Cerep) BioPrint Profile Panel
Description: as §1

5-HT7 = target: T21, 5-HT7 (Homo sapiens, UniProt P34969); conditions: Agonist, Receptor, read-out: % of specific inhibition
T21 construct: purchased Eurofins Discovery (Cerep) BioPrint Profile Panel
Description: as §1

N muscle-type = conditions: 10 μM; Antagonist; Receptor
Description: as §1

D1 = target: T22, D1 (Homo sapiens, UniProt P21728); conditions: Antagonist, Receptor, read-out: % of specific inhibition
T22 construct: purchased Eurofins Discovery (Cerep) BioPrint Profile Panel
Description: as §1

CRF1 = target: T23, CRF1 (Homo sapiens, UniProt P34998); conditions: Agonist, Receptor, read-out: % of specific inhibition
T23 construct: purchased Eurofins Discovery (Cerep) BioPrint Profile Panel
Description: as §1

5-HT2A = target: T24, 5-HT2A (Homo sapiens, UniProt P28223); conditions: Agonist, Receptor, read-out: % of specific inhibition
T24 construct: purchased Eurofins Discovery (Cerep) BioPrint Profile Panel
Description: as §1

5-HT1D = target: T25, 5-HT1D (Rattus norvegicus, UniProt P28565); conditions: Agonist, Receptor, read-out: % of specific inhibition
T25 construct: purchased Eurofins Discovery (Cerep) BioPrint Profile Panel
Description: as §1

α1A = target: T26, α1A (Homo sapiens, UniProt P35348); conditions: Antagonist, Receptor, read-out: % of specific inhibition
T26 construct: purchased Eurofins Discovery (Cerep) BioPrint Profile Panel
Description: as §1

NOP (ORL1) = target: T27, NOP (ORL1) (Homo sapiens, UniProt P41146); conditions: Agonist, Receptor, read-out: % of specific inhibition
T27 construct: purchased Eurofins Discovery (Cerep) BioPrint Profile Panel
Description: as §1

H3 = target: T28, H3 (Homo sapiens, UniProt Q9Y5N1); conditions: Agonist, Receptor, read-out: % of specific inhibition
T28 construct: purchased Eurofins Discovery (Cerep) BioPrint Profile Panel
Description: as §1

M2 = target: T29, M2 (Homo sapiens, UniProt P08172); conditions: Antagonist, Receptor, read-out: % of specific inhibition
T29 construct: purchased Eurofins Discovery (Cerep) BioPrint Profile Panel
Description: as §1

UT = target: T30, UT (Homo sapiens, UniProt Q9UKP6); conditions: Agonist, Receptor, read-out: % of specific inhibition
T30 construct: purchased Eurofins Discovery (Cerep) BioPrint Profile Panel
Description: as §1

β3 = target: T31, β3 (Homo sapiens, UniProt P13945); conditions: Antagonist, Receptor, read-out: % of specific inhibition
T31 construct: purchased Eurofins Discovery (Cerep) BioPrint Profile Panel
Description: as §1

Estrogen Erα = target: T32, Estrogen Erα (Homo sapiens, UniProt P03372); conditions: Agonist, Receptor, read-out: % of specific inhibition
T32 construct: purchased Eurofins Discovery (Cerep) BioPrint Profile Panel
Description: as §1

VPAC1 = target: T33, VPAC1 (Homo sapiens, UniProt P32241); conditions: Agonist, Receptor, read-out: % of specific inhibition
T33 construct: purchased Eurofins Discovery (Cerep) BioPrint Profile Panel
Description: as §1

AT2 = target: T34, AT2 (Homo sapiens, UniProt P50052); conditions: Agonist, Receptor, read-out: % of specific inhibition
T34 construct: purchased Eurofins Discovery (Cerep) BioPrint Profile Panel
Description: as §1

GR = target: T35, GR (Homo sapiens, UniProt P04150); conditions: Agonist, Receptor, read-out: % of specific inhibition
T35 construct: purchased Eurofins Discovery (Cerep) BioPrint Profile Panel
Description: as §1

MT3 (ML2) = conditions: 10 μM; Agonist; Receptor
Description: as §1

GABAA1 (h) (α1, β2, γ2) = target: T36, GABAA1 (h) (α1, β2, γ2) (Homo sapiens, UniProt P14867+P47870); conditions: Agonist, Receptor, read-out: % of specific inhibition
T36 construct: purchased Eurofins Discovery (Cerep) BioPrint Profile Panel
Description: as §1

GABAB(1b) = target: T37, GABAB(1b) (Homo sapiens, UniProt Q9UBS5); conditions: Antagonist, Receptor, read-out: % of specific inhibition
T37 construct: purchased Eurofins Discovery (Cerep) BioPrint Profile Panel
Description: as §1

NMDA = conditions: 10 μM; Antagonist; Ion Channel
Description: as §1

T2 sequence (Q01959 whole entry): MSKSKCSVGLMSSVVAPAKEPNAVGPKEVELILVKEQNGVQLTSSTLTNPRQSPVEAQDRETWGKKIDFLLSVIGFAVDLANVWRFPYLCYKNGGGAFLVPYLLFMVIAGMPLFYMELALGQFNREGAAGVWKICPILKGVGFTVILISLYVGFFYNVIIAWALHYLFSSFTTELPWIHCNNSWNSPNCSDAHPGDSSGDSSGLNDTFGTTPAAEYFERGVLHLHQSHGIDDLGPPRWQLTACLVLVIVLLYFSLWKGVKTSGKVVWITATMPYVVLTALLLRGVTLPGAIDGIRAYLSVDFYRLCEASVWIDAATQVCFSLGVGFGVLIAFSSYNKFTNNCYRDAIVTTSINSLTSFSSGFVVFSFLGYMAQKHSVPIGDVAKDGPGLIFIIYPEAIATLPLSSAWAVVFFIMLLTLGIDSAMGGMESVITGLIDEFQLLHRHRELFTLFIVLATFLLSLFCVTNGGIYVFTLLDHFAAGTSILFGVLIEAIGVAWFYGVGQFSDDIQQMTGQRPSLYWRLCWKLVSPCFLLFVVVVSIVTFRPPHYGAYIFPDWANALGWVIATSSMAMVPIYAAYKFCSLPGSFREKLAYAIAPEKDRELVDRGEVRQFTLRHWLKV
T30 sequence (Q9UKP6 whole entry): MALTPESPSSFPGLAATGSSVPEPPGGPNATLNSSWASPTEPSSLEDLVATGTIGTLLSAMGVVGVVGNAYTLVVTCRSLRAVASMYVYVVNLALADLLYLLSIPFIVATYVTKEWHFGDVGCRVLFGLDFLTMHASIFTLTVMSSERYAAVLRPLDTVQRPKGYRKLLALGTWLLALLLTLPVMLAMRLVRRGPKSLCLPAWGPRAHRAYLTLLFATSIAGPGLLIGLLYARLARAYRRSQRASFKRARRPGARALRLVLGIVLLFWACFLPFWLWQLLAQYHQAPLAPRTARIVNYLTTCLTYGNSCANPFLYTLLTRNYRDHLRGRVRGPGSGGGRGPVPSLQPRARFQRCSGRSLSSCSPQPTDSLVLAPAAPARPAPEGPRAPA
T10 sequence (P50406 whole entry): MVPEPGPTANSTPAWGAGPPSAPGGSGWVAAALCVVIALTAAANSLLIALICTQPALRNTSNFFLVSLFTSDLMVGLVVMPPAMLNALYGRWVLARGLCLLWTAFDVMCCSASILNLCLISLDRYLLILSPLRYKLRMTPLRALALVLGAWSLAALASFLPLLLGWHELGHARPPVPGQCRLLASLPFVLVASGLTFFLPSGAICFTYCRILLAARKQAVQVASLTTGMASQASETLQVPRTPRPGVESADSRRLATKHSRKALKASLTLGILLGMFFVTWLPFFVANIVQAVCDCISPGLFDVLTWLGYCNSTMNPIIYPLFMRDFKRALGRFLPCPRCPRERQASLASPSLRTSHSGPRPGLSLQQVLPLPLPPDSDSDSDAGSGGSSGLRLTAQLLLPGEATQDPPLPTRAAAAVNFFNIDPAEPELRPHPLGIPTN
T37 sequence (Q9UBS5 1-844 isoform Q9UBS5-2): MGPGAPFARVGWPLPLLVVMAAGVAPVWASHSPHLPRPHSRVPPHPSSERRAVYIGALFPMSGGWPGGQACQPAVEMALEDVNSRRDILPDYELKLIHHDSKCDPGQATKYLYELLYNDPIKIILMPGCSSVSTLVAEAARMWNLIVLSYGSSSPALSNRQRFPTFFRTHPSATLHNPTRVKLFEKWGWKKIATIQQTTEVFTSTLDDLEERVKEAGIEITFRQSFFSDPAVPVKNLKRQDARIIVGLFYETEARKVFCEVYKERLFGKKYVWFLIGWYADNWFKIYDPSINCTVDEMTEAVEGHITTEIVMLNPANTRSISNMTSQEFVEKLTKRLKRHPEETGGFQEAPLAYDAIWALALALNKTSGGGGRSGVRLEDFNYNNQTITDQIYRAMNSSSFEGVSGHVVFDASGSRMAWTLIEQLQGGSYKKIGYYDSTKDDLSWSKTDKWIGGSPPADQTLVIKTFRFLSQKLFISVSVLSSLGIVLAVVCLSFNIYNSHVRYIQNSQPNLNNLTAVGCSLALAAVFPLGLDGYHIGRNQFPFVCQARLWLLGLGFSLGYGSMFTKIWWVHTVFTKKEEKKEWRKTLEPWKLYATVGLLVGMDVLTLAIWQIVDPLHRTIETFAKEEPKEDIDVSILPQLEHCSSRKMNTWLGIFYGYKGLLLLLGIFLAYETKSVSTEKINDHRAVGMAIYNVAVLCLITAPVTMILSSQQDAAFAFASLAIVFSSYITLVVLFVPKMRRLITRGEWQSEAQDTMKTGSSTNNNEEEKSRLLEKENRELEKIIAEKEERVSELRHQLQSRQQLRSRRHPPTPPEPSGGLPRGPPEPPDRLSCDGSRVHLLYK
T37 sequence (O75899 42-941 partner): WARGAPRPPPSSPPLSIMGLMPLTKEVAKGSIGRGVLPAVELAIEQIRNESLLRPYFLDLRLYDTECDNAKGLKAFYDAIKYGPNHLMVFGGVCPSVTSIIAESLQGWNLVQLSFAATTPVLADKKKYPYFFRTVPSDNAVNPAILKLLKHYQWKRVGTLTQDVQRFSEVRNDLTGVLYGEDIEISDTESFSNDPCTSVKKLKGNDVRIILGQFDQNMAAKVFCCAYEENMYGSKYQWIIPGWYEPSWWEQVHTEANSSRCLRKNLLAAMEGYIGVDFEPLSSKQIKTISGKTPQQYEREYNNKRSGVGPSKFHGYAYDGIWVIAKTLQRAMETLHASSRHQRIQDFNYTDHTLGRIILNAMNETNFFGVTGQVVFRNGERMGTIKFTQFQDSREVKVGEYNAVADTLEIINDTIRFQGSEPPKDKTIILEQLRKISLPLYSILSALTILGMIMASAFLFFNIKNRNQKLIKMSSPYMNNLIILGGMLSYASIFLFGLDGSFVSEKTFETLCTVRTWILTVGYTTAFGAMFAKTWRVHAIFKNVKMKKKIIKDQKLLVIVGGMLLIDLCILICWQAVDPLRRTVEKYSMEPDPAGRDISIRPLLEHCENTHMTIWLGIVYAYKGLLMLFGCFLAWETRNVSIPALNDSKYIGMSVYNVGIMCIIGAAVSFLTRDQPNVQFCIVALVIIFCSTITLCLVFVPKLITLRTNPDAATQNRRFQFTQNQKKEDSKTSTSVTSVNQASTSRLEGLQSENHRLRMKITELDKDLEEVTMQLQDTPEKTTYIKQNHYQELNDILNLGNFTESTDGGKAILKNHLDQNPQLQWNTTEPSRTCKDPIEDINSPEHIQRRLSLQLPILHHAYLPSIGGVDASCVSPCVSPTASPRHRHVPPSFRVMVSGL
T24 sequence (P28223 whole entry): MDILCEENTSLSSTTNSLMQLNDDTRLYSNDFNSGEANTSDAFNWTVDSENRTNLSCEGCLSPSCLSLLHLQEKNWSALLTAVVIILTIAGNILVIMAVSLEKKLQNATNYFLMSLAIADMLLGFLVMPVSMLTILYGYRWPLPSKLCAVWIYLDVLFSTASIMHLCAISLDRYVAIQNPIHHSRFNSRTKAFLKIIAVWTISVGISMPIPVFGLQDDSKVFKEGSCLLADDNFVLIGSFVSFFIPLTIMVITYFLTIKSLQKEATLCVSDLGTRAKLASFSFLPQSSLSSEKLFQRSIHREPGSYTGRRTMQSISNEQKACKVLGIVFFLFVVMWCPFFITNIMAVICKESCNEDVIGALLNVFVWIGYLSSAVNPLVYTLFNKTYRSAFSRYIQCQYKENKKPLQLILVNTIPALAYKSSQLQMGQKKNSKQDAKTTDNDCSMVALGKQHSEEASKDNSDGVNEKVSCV
T16 sequence (O43193 whole entry): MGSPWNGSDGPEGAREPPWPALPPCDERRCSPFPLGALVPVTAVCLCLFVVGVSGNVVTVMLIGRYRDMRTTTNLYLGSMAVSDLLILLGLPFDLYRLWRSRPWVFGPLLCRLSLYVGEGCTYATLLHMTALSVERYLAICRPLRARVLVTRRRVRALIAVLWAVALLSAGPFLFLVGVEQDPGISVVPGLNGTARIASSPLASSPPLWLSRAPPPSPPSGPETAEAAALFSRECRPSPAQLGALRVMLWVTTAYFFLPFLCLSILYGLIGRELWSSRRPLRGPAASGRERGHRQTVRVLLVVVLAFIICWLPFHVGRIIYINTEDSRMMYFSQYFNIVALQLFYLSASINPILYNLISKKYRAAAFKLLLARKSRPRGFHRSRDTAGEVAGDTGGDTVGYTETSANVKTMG
T9 sequence (P28564 whole entry): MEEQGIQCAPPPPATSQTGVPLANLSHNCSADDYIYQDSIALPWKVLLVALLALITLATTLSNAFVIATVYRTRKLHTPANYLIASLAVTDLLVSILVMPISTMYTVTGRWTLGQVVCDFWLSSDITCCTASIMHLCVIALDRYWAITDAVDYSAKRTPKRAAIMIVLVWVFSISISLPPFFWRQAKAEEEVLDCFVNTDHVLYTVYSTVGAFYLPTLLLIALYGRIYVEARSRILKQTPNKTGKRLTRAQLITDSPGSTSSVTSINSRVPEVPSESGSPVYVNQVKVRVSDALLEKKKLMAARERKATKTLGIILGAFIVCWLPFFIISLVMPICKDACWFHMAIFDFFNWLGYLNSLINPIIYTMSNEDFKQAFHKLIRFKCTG
T8 sequence (Q01727 whole entry): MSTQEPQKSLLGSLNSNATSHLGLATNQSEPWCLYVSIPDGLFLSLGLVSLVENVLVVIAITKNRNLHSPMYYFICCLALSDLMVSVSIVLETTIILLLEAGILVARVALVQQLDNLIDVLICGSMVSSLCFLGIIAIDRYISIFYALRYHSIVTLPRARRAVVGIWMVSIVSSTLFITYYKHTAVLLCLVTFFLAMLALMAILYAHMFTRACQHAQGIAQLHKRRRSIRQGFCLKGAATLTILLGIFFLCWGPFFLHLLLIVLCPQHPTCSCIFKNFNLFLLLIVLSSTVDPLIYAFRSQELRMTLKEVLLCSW

O=c1cc(-c2ccccc2)oc2c(O)c(O)ccc12 [7,8-DHF, 7,8-dihydroxyflavone]
inhibition at 10 µM [1]: -1% | inhibition at 10 µM (dopamine transporter): 4% | % of specific inhibition (AMPA): 7% | inhibition at 10 µM (ETB): -26% | inhibition at 10 µM (D2S): -15% | % of specific inhibition [2]: -15% | inhibition at 10 µM (sst4): -23% | inhibition at 10 µM (BB3): 11% | inhibition at 10 µM (MAO-A): 35% | % Inhibition of Control Specific Binding (BZD): 71% and 70.6% | inhibition at 10 µM (MC1): -5% | inhibition at 10 µM (5-HT1B): 3% | inhibition at 10 µM (5-HT6): -3% | inhibition at 10 µM (AR): 0% | % of specific inhibition (kappa): 3% | inhibition at 10 µM (MT1 (ML1A)): 20% | inhibition at 10 µM (ẟ(DOP)): -5% | % of specific inhibition (kainate): 26% | inhibition at 10 µM (EP2): 2% | inhibition at 10 µM (choline transporter): 5% | inhibition at 10 µM (motilin): -2% | inhibition at 10 µM (H4): -4% | inhibition at 10 µM (H1): -5% | inhibition at 10 µM (PPARγ): 21% | inhibition at 10 µM (CB2): -3% | inhibition at 10 µM (5-HT7): 4% | % of specific inhibition (N muscle-type): -20% | inhibition at 10 µM (D1): -4% | inhibition at 10 µM (CRF1): 5% | inhibition at 10 µM (5-HT2A): -4% | inhibition at 10 µM (5-HT1D): -8% | inhibition at 10 µM (α1A): 2% | inhibition at 10 µM (NOP (ORL1)): 11% | inhibition at 10 µM (H3): -6% | inhibition at 10 µM (M2): -2% | inhibition at 10 µM (UT): -9% | inhibition at 10 µM (β3): -25% | inhibition at 10 µM (Estrogen Erα): 7% | inhibition at 10 µM (VPAC1): -13% | inhibition at 10 µM (AT2): 6% | inhibition at 10 µM (GR): -1% | % Inhibition of Control Specific Binding (MT3 (ML2)): 86% | inhibition at 10 µM (GABAA1 (h) (α1, β2, γ2)): 12% | inhibition at 10 µM (GABAB(1b)): -5% | % of specific inhibition (NMDA): 11%
